Laboratory results published in patent US11690851B2, “Methods and compositions comprising ursolic acid and/or resveratrol for treating diabetes, or cancer” (priority 2014, dated 2023).

Key:
[1] = tested on: L6 myotubes; test: cellular glucose uptake ([3H]-2DG); type: cell-based; conditions: Ins 100 nM, Met 1 mM, UA 10 uM, RES 100 uM
Protocol: L6 myotubes were incubated with UA (10 μM) at different time points.

[2] = tested on: AMPK; test: AMPK phosphorylation in L6 myotubes; type: cell-based; conditions: 30 min, UA 10 μM, RES 100 μM, alone or combined
Protocol: (§1) L6 myotubes were incubated with UA (10 μM) at different time points. Ursolic acid induced Akt phosphorylation by 1.8, 1.7, and 1.8 fold increase at 30, 45, and 60 min. […] Treatment of L6 myotubes with UA (10 μM) or RES (100 μM) for 30 min increased AMPK phosphorylation by 1.7 and 5.3 fold, respectively.

[3] = tested on: Ca3/7 mouse squamous carcinoma cells; test: MTT assay for cell viability, Ca3/7; type: cell-based; conditions: Ca3/7 cells, 200 μM RES
Protocol: MTT assay for cell viability: Cells were plated at 1.5×10^4 cells/well on 96-well plates. Cells were pretreated with RES or 0.1% vehicle for 1 hr followed by various doses of UA or 0.1% DMSO vehicle for 24 hr. In the experiment with A549 cells, 5.0×10^3 cells/well were plated, and cells were treated with UA or 0.1% DMSO for 48 hr after 1 hr pretreatment with RES or vehicle. MTT reagent (0.5 mg/ml) was added, and cells were incubated for an additional 2.5 hr. Media was removed and formazan crystals were dissolved with 100 μl DMSO. Plates were measured at 570 nm with background subtraction at 650 nm, using a Biotek Synergy HT spectrophotometer. Statistical Analyses: Differences between individual groups were determined by ANOVA. IC50 values were calculated with GraphPad Prism. Resistance Reversal (RR) was calculated by dividing the IC50 value of the UA+vehicle group by the IC50 value of the UA+RES group.

[4] = tested on: NFKB; test: Luciferase assay for NFKB activity in HaCaT cells; type: cell-based, human
Protocol: Luciferase assay for NFKB activity: HaCaT cells were transfected with the NFKB Cignal Reporter Assay Kit from Qiagen, using Attractene transfection reagent, per manufacturer's instructions. Cells were plated at 1.5×10^4 cells/well in 96 well plates during the transfection. After 16 hr transfection, cells were resupplied with OptiMEM containing 0.5% FBS, 1% non-essential amino acids, 50 U/ml penicillin, and […] for 24 hr. Cells were pretreated with various doses of RES or vehicle for 1 hr, followed by UA or vehicle for 1 hr. TNFα at 10 ng/ml was added and cells were incubated for 4 hr. Luminescence of both the TNFα-induced firefly luciferase and the transfection control Renilla luciferase were measured using the Dual-Luciferase Reporter Assay System from Promega and quantified using a Biotek Synergy HT spectrophotometer.

[5] = tested on: SENCAR mice; test: TPA-induced epidermal proliferation (BrdU IHC) in mouse skin; type: in vivo
Protocol: (§2) Animals and treatment: Female SENCAR mice, 6-7 weeks old, were purchased from NCI Frederick (Frederick, Md.). The dorsal skin of SENCAR mice were shaved and treated topically twice per week for 2 weeks with 200 μL acetone vehicle or 1-3 μmol UA, 1-3 μmol RES, or an equimolar combination of RES and UA. Each treatment was followed 30 minutes later with topical application of 200 μL acetone vehicle or 1-2 μg of the tumor promoter TPA. In vivo sample collection: Animals were sacrificed 6 hr after the final TPA treatment for Western blotting and 48 hr after the final TPA treatment for histology. For immunohistochemical (IHC) analysis of epidermal proliferation five mice per group were i.p. injected with 100 mg/kg Bromodeoxyuridine (BrdU) in PBS 30 min prior to sacrifice. 1 cm^2 of mouse skin from treated areas was fixed in formalin and paraffin embedded to be analyzed via IHC. Immunohistochemistry (IHC): Slides were immunostained with anti-BrdU antibody. The percentage of BrdU-positive cells in the basal cell layer was determined from at least 10 randomly selected sites per slide (5 mice/group). In addition, the epidermal thickness of each skin sample was also measured at 10 random sites for 5 mice/group, using Image Pro-Discovery from Media Cybernetics (Bethesda, Md.).

[6] = tested on: NFKB subunit p65; test: TNFα-mediated p65 phosphorylation in HaCaT keratinocytes, Western blot; type: cell-based, human; conditions: preliminary experiments, RES 100 and 200 μM, UA 10 and 20 μM, single agents
Protocol: Western blotting: HaCaT cells were treated with sub-optimal doses of RES, UA, or RES+UA and stimulated with 10 ng/ml human tumor necrosis factor alpha (TNFα) for 30 min. Cells were scraped into lysis buffer containing 1% Triton X-100, 0.5% IGEPAL, 0.05 M TrisHCl and 0.1 M NaCl as well as protease/phosphatase inhibitors and 5 mM EDT A. For in vivo studies, whole skin was placed on glass over ice and epidermis was removed by scraping and placed in RIPA buffer with protease/phosphatase inhibitors. Lysates were homogenized and proteins were extracted by centrifugation. Twenty micrograms of protein was separated on Bis-Tris gels and transferred onto PVDF membranes. Membranes were blocked in 5% dry milk or BSA and incubated with primary antibodies overnight at 4° C. Membranes were incubated with corresponding HRP-conjugated secondary antibodies for one hour and developed.
As mentioned before, NFKB activity is important during the tumor promotion phase.

[7] = tested on: SENCAR mice; test: TPA-mediated epidermal thickening (hyperplasia) in mouse skin; type: in vivo; conditions: for 2 μg TPA-mediated epidermal thickening: topical 1, 2, or 3 μmol total dose, single agent
Protocol: as §2

[8] = tested on: Akt; test: Akt phosphorylation in L6 myotubes; type: cell-based; conditions: UA 10 μM
Protocol: as §1

[9] = tested on: Akt substrate 160 (AS160); test: AS160 phosphorylation in L6 myotubes; type: cell-based; conditions: UA 10 μM
Protocol: as §1

[10] = 1-3 μmol doses, assayed 48 hr after the final TPA treatment

| SMILES | Mean [3H]-2DG per Min per Protein [ ] [1] [pmol/mg/min] | Mean [3H]-DPM corrected for CYTO B [1] [DPM/mg] | fold change from DMSO [1] [fold] | AMPK phosphorylation increase [2] [fold] | 2 μg TPA-induced epidermal proliferation [5, 10] | TNFα-induced NFKB activity (phosphorylation of p65) [6] | 2 μg TPA-mediated epidermal thickening [7] | other results |
| --- | --- | --- | --- | --- | --- | --- | --- | --- |
| CN(C)C(=N)N=C(N)N [Met, Metformin, reference compound] | 232.19 | 19718.32 | 1.94 | – | – | – | – | – |
| Oc1ccc(C=Cc2cc(O)cc(O)c2)cc1 [RES, resveratrol] | 244.97 | 37819.44 | 2.05 | 5.3 | limited effect | moderate effect | no effect | UA-mediated growth suppression with RES [3]: increases the sensitivity; NFKB activity (luciferase reporter) ([4]; RES alone 100 and 200 μM): partially inhibited; effect of 1 μg TPA on epidermal thickening ([7]; 2 and 3 μmol doses of RES alone): no effect |
| C[C@H]1[C@H](C)CC[C@]2(C(=O)O)CC[C@]3(C)C(=CC[C@@H]4[C@@]5(C)CC[C@H](O)C(C)(C)[C@@H]5CC[C@]43C)[C@H]12 [UA, Ursolic acid] | 257.35 | 21855.37 | 2.15 | 1.7 | limited effect | moderate effect | dose-dependently reversed | Akt phosphorylation fold increase ([8]; 30 min): 1.8 fold; Akt phosphorylation fold increase ([8]; 45 min): 1.7 fold; Akt phosphorylation fold increase ([8]; 60 min): 1.8 fold; TNFα-stimulated NFKB activity (luciferase reporter) ([4]; UA alone): dose-dependently decreases; 2 μg TPA-induced epidermal proliferation ([5]; 3 μmol of UA alone): significantly decreased; 1 μg TPA-induced epidermal proliferation ([5]; UA alone, 1-3 μmol): dose-dependently decreased; effect of 1 μg TPA on epidermal thickening ([7]; UA alone, 1-3 μmol): dose-dependently decreased; AS160 phosphorylation increase ([9]; 15 min): 1.3 fold; AS160 phosphorylation increase ([9]; 30 min): 2.5 fold; AS160 phosphorylation increase ([9]; 45 min): 1.6 fold; AS160 phosphorylation increase ([9]; 60 min): 2.3 fold |
